Reference: PubChem BioAssay AID256 (DTP/NCI, 2004)
Where “and” joins values, the source holds several entries; their conditions need not be identical. Equal values may be shown once. Inconclusive results and toxic doses are left out.

Test system: CD2F1 mice, L1210 leukemia ip, survival T/C
Assay: NCI In Vivo Anticancer Drug Screen. Data for tumor model L1210 Leukemia (intraperitoneal) in CD2F1 (CDF1) mice
Conditions: endpoint: mean survival time, higher = longer survival
Procedure, shortened: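 Read-out first: treated-group measurement over vehicle-control measurement, expressed as a ratio. Animals bore a transplanted tumor line and were dosed with compound or vehicle.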

[1] = dose: 12.5 mg/kg/injection, schedule: Q01DX001 (ip), vehicle: saline with Tween-80
[2] = dose: 25.0 mg/kg/injection, schedule: Q01DX001 (ip), vehicle: saline with Tween-80
[3] = dose: 100.0 mg/kg/injection, schedule: Q04DX003 (ip), vehicle: saline with Tween-80
[4] = dose: 200.0 mg/kg/injection, schedule: Q04DX003 (ip), vehicle: saline with Tween-80
[5] = dose: 100.0 mg/kg/injection, schedule: Q01DX009 (ip), vehicle: saline with Tween-80
[6] = dose: 200.0 mg/kg/injection, schedule: Q01DX009 (ip), vehicle: saline with Tween-80
[7] = dose: 400.0 mg/kg/injection, schedule: Q01DX009 (ip), vehicle: saline with Tween-80
[8] = dose: 400.0 mg/kg/injection, schedule: Q04DX003 (ip), vehicle: saline with Tween-80
[9] = dose: 12.5 mg/kg/injection, schedule: Q01DX009 (ip), vehicle: saline with Tween-80
[10] = dose: 25.0 mg/kg/injection, schedule: Q01DX009 (ip), vehicle: saline with Tween-80
[11] = dose: 50.0 mg/kg/injection, schedule: Q01DX009 (ip), vehicle: saline with Tween-80
[12] = dose: 100.0 mg/kg/injection, schedule: Q01DX001 (ip), vehicle: saline with Tween-80
[13] = dose: 200.0 mg/kg/injection, schedule: Q01DX001 (ip), vehicle: saline with Tween-80
[14] = dose: 400.0 mg/kg/injection, schedule: Q01DX001 (ip), vehicle: saline with Tween-80

## Cc1cc(=O)c(Cl)cc(=O)[nH]1
[1]
  T/C: 95 % of control
[2]
  T/C: 95 % of control

## O=C1NC(=O)C2C3CCC(O3)C12 (stereo not drawn)
dose: 25.0 mg/kg/injection, schedule: Q01DX009 (ip), vehicle: saline
  T/C: 102 % of control
dose: 25.0 mg/kg/injection, schedule: Q04DX002 (ip), vehicle: saline with Tween-80
  T/C: 103 % of control and 97 % of control
dose: 50.0 mg/kg/injection, schedule: Q01DX009 (ip), vehicle: saline
  T/C: 105 % of control
dose: 50.0 mg/kg/injection, schedule: Q04DX002 (ip), vehicle: saline with Tween-80
  T/C: 98 % of control and 106 % of control
dose: 100.0 mg/kg/injection, schedule: Q01DX009 (ip), vehicle: saline
  T/C: 102 % of control
dose: 100.0 mg/kg/injection, schedule: Q04DX002 (ip), vehicle: saline with Tween-80
  T/C: 103 % of control and 101 % of control
dose: 200.0 mg/kg/injection, schedule: Q04DX002 (ip), vehicle: saline with Tween-80
  T/C: 87 % of control

## CCOC(=O)c1c(C)nc(C)c(C(=O)OCC)c1-c1ccc(N(C)C)cc1
[3]
  T/C: 104 % of control
[4]
  T/C: 98 % of control

## O=c1[nH]c2ccccc2c(=O)c2ccccc12
[5]
  T/C: 90 % of control
[3]
  T/C: 101 % of control
[6]
  T/C: 94 % of control
[4]
  T/C: 97 % of control
[7]
  T/C: 107 % of control
[8]
  T/C: 101 % of control

## C=CCN(CC=C)C(=O)OCC
[5]
  T/C: 97 % of control
dose: 100.0 mg/kg/injection, schedule: Q04DX003 (ip), vehicle: saline
  T/C: 97 % of control
[6]
  T/C: 96 % of control
dose: 200.0 mg/kg/injection, schedule: Q04DX003 (ip), vehicle: saline
  T/C: 95 % of control
dose: 400.0 mg/kg/injection, schedule: Q04DX003 (ip), vehicle: saline
  T/C: 101 % of control

## Cc1cc2c(C(C)C)c(O)c(O)cc2c(O)c1-c1c(C)cc2c(C(C)C)c(O)c(O)cc2c1O
[1]
  T/C: 105 % of control
[9]
  T/C: 100 % of control
[2]
  T/C: 102 % of control
[10]
  T/C: 94 % of control
dose: 50.0 mg/kg/injection, schedule: Q01DX001 (ip), vehicle: saline with Tween-80
  T/C: 103 % of control
[11]
  T/C: 90 % of control

## COCCOC
dose: 200.0 mg/kg/injection, schedule: Q01DX Z (ip), vehicle: carboxymethylcellulose (CMC)
  T/C: 103 % of control
dose: 300.0 mg/kg/injection, schedule: Q01DX Z (ip), vehicle: carboxymethylcellulose (CMC)
  T/C: 110 % of control
dose: 450.0 mg/kg/injection, schedule: Q01DX Z (ip), vehicle: carboxymethylcellulose (CMC)
  T/C: 114 % of control
dose: 675.0 mg/kg/injection, schedule: Q01DX Z (ip), vehicle: carboxymethylcellulose (CMC)
  T/C: 102 % of control

## CC(=O)OCC(C)CCC(=O)C(C)C1C(=O)CC2C3CC=C4CC(OC(C)=O)CCC4(C)C3CCC21C (stereo not drawn)
[5]
  T/C: 100 % of control
[6]
  T/C: 97 % of control
[7]
  T/C: 91 % of control

## COc1ccc(Nc2ncnc3c2ncn3C2OC(CO)C(O)C2O)cc1 (stereo not drawn)
dose: 6.25 mg/kg/injection, schedule: Q01DX005 (ip), vehicle: distilled water + Tween-80
  T/C: 101 % of control
dose: 12.5 mg/kg/injection, schedule: Q01DX005 (ip), vehicle: distilled water + Tween-80
  T/C: 102 % of control and 96 % of control
dose: 25.0 mg/kg/injection, schedule: Q01DX005 (ip), vehicle: distilled water + Tween-80
  T/C: 104 % of control and 96 % of control
dose: 50.0 mg/kg/injection, schedule: Q01DX005 (ip), vehicle: distilled water + Tween-80
  T/C: 91 % of control
dose: 100.0 mg/kg/injection, schedule: Q01DX005 (ip), vehicle: distilled water + Tween-80
  T/C: 102 % of control
dose: 200.0 mg/kg/injection, schedule: Q01DX005 (ip), vehicle: distilled water + Tween-80
  T/C: 100 % of control

## O=C(O)c1cc(-c2ccc(Cl)c(Cl)c2)nc2c(Cl)cc(Cl)cc12
dose: 100.0 mg/kg/injection, schedule: Q01DX001 (ip), vehicle: saline
  T/C: 100 % of control
dose: 200.0 mg/kg/injection, schedule: Q01DX001 (ip), vehicle: saline
  T/C: 100 % of control
dose: 400.0 mg/kg/injection, schedule: Q01DX001 (ip), vehicle: saline
  T/C: 97 % of control

## C=C(C)C(=O)OC1C/C(CO)=C\C(O)C/C(C)=C/C2OC(=O)C(=C)C21 (stereo not drawn)
dose: 1.25 mg/kg/injection, schedule: Q01DX009 (ip), vehicle: saline + alcohol
  T/C: 103 % of control and 104 % of control
dose: 2.5 mg/kg/injection, schedule: Q01DX009 (ip), vehicle: saline + alcohol
  T/C: 116 % of control and 101 % of control
dose: 3.75 mg/kg/injection, schedule: Q01DX009 (ip), vehicle: saline + alcohol
  T/C: 114 % of control
dose: 5.0 mg/kg/injection, schedule: Q01DX009 (ip), vehicle: saline + alcohol
  T/C: 113 % of control and 123 % of control
dose: 7.5 mg/kg/injection, schedule: Q01DX009 (ip), vehicle: saline + alcohol
  T/C: 114 % of control
dose: 10.0 mg/kg/injection, schedule: Q01DX009 (ip), vehicle: saline + alcohol
  T/C: 110 % of control
dose: 15.0 mg/kg/injection, schedule: Q01DX009 (ip), vehicle: saline + alcohol
  T/C: 106 % of control
dose: 20.0 mg/kg/injection, schedule: Q01DX009 (ip), vehicle: saline + alcohol
  T/C: 122 % of control
dose: 30.0 mg/kg/injection, schedule: Q01DX009 (ip), vehicle: saline + alcohol
  T/C: 120 % of control
dose: 40.0 mg/kg/injection, schedule: Q01DX009 (ip), vehicle: saline + alcohol
  T/C: 97 % of control

## CN(C)c1ccc(/C=N/NC(=O)c2ccccc2N)cc1
[5]
  T/C: 92 % of control
[6]
  T/C: 91 % of control
[7]
  T/C: 91 % of control

## CCOS(=O)(=O)c1ccc(Cl)c([N+](=O)[O-])c1
[9]
  T/C: 100 % of control
[10]
  T/C: 105 % of control
[11]
  T/C: 94 % of control and 100 % of control
[3]
  T/C: 103 % of control

## CC(O)CC1CC(=O)CCC1=O (stereo not drawn)
[12]
  T/C: 98 % of control
[13]
  T/C: 103 % of control
[14]
  T/C: 95 % of control

## NC(=O)C(NCc1ccccc1)c1ccccc1 (stereo not drawn)
[3]
  T/C: 94 % of control
[4]
  T/C: 99 % of control

## O=C1C=CC(=O)c2nc3c(nc21)[nH]c1ccccc13
dose: 75.0 mg/kg/injection, schedule: Q01DX001 (ip), vehicle: saline
  T/C: 101 % of control
dose: 150.0 mg/kg/injection, schedule: Q01DX001 (ip), vehicle: saline
  T/C: 98 % of control
dose: 300.0 mg/kg/injection, schedule: Q01DX001 (ip), vehicle: saline
  T/C: 97 % of control

## Nc1c(Cl)cccc1C(=O)c1ccccc1C(=O)O
[5]
  T/C: 97 % of control
[3]
  T/C: 101 % of control
[6]
  T/C: 95 % of control
[4]
  T/C: 101 % of control
[7]
  T/C: 101 % of control
[8]
  T/C: 103 % of control

## O=C(COc1cccc(Cl)c1)Nc1cccc(NC(=O)c2ccc(S(=O)(=O)F)cc2)c1
[12]
  T/C: 91 % of control
[13]
  T/C: 90 % of control
[14]
  T/C: 101 % of control

## CCC(=O)N(N=O)c1ccccc1
dose: 4.7 mg/kg/injection, schedule: Q04DX003 (ip), vehicle: saline
  T/C: 102 % of control
dose: 9.4 mg/kg/injection, schedule: Q04DX003 (ip), vehicle: saline
  T/C: 107 % of control
dose: 18.8 mg/kg/injection, schedule: Q04DX003 (ip), vehicle: saline
  T/C: 102 % of control

## CC(=O)c1cccc(N=NN(C)C)c1
dose: 46.0 mg/kg/injection, schedule: Q01DX009 (ip), vehicle: Klucel (hydroxypropylcellulose) (HPC)
  T/C: 124 % of control
dose: 69.0 mg/kg/injection, schedule: Q01DX009 (ip), vehicle: Klucel (hydroxypropylcellulose) (HPC)
  T/C: 154 % of control
dose: 158.0 mg/kg/injection, schedule: Q01DX009 (ip), vehicle: Klucel (hydroxypropylcellulose) (HPC)
  T/C: 87 % of control and 107 % of control

## CC(=O)OCC1OC(N(C(C)=O)c2nc(Cl)c3cc[nH]c3n2)C(OC(C)=O)C1OC(C)=O (stereo not drawn)
dose: 12.5 mg/kg/injection, schedule: Q01DX005 (ip), vehicle: water
  T/C: 104 % of control
dose: 25.0 mg/kg/injection, schedule: Q01DX005 (ip), vehicle: water
  T/C: 101 % of control
dose: 50.0 mg/kg/injection, schedule: Q01DX005 (ip), vehicle: water
  T/C: 98 % of control
dose: 100.0 mg/kg/injection, schedule: Q01DX005 (ip), vehicle: water
  T/C: 102 % of control
dose: 200.0 mg/kg/injection, schedule: Q01DX005 (ip), vehicle: water
  T/C: 106 % of control

## COc1cc2c(cc1O)CCCCC2O (stereo not drawn)
dose: 50.0 mg/kg/injection, schedule: Q01DX009 (ip), vehicle: other
  T/C: 107 % of control
dose: 100.0 mg/kg/injection, schedule: Q01DX009 (ip), vehicle: other
  T/C: 100 % of control
dose: 200.0 mg/kg/injection, schedule: Q01DX009 (ip), vehicle: other
  T/C: 92 % of control

## CCCCCCC(/C=N\N=C\c1ccco1)=C\c1ccccc1
[5]
  T/C: 92 % of control
[3]
  T/C: 90 % of control
[6]
  T/C: 92 % of control
[4]
  T/C: 100 % of control
[7]
  T/C: 100 % of control
[8]
  T/C: 90 % of control
